Each compound was assayed on RSV strain A2 (assay: RSV antiviral cytoprotection assay in Hep2 cells (RSV-induced cytopathic effect, Cell TiterGlo)). Conditions: human respiratory syncytial virus, HEp-2, 0.5 μM compound; RSV A2-infected Hep2 cells; % inhibition calculated from 4-parameter dose response curve, normalized to 0% and 100%; read-out: Percent inhibition at 0.5 μM.
Format: cell-based, Respiratory Syncytial Virus (RSV)
How it was run: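 Hep2 cells were infected with RSV A2 and exposed to 3-fold compound dilutions, either 3,000 cells/well for 4 days (96-well) or 2000 cells/well at MOI 1:1000 for 5 days at 37° C. (384-well). Cytopathic effect was read by Cell TiterGlo luminescence, and EC50 or normalized % inhibition came from curve fits against infected and uninfected controls.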
In the case of `Cc1cn2nc([C@@H]3CCCCN3C(=O)c3cc(Cl)ccc3C(F)(F)F)cc2nc1N1CC[C@H](N)C1` [Compound 106], the inhibition at 0.5 µM is reported as 100%. `COc1ccc(F)c(C(=O)N2CCCC[C@H]2c2cc3nc(N4CC[C@H](N)C4)c(C)cn3n2)n1` [Compound 107] showed an inhibition at 0.5 µM of 100%. `Cc1cn2nc([C@@H]3CCCCN3C(=O)c3cccc4n[nH]cc34)cc2nc1N1CC[C@H](N)C1` [Compound 108] gave an inhibition at 0.5 µM of 99%. In the case of `Cc1cn2nc([C@@H]3CCCCN3C(=O)c3cc(F)ccc3C(F)(F)F)cc2nc1N1CC[C@H](N)C1` [Compound 109], the inhibition at 0.5 µM is reported as 100%. In the case of `CCc1ccc(C(=O)N2CCCC[C@H]2c2cc3nc(N4CC[C@H](N)C4)c(C)cn3n2)nc1` [Compound 110], the inhibition at 0.5 µM is reported as 36%. `Cc1ccc(Br)cc1C(=O)N1CCCC[C@H]1c1cc2nc(N3C[C@@H](C#N)[C@@H](O)C3)c(C)cn2n1` [Compound 112] gave an inhibition at 0.5 µM of 100%. In the case of `COc1ccccc1C(=O)N1CCCC[C@H]1c1cc2nc(N3C[C@@H](C#N)[C@@H](O)C3)c(C)cn2n1` [Compound 113], the inhibition at 0.5 µM is reported as 100%. In the case of `Cc1cn2nc([C@@H]3CCCCN3C(=O)c3cc(F)c(F)c(Cl)c3F)cc2nc1N1C[C@@H](C#N)[C@@H](O)C1` [Compound 114], the inhibition at 0.5 µM is reported as 100%. `Cc1cn2nc([C@@H]3CCCCN3C(=O)c3ncccc3Cl)cc2nc1N1C[C@@H](C#N)[C@@H](O)C1` [Compound 115] gave an inhibition at 0.5 µM of 98%. With `Cc1cn2nc([C@@H]3CCCCN3C(=O)c3cccc(F)c3Cl)cc2nc1N1C[C@@H](C#N)[C@@H](O)C1` [Compound 116] the inhibition at 0.5 µM was 100%. Compound `Cc1cn2nc([C@@H]3CCCCN3C(=O)c3ccc(C#N)cc3F)cc2nc1N1C[C@@H](C#N)[C@@H](O)C1` [Compound 117] has an inhibition at 0.5 µM of 46%. With `Cc1cn2nc([C@@H]3CCCCN3C(=O)c3ccc(C)c(F)c3F)cc2nc1N1C[C@@H](C#N)[C@@H](O)C1` [Compound 118] the inhibition at 0.5 µM was 99%. `Cc1ccc(C(F)(F)F)c(C(=O)N2CCCC[C@H]2c2cc3nc(N4C[C@@H](C#N)[C@@H](O)C4)c(C)cn3n2)c1` [Compound 120] showed an inhibition at 0.5 µM of 100%. Compound `Cc1ccc(C(=O)N2CCCC[C@H]2c2cc3nc(N4C[C@@H](C#N)[C@@H](O)C4)c(C)cn3n2)c(C(F)(F)F)c1` [Compound 121] has an inhibition at 0.5 µM of 92%. `Cc1cn2nc([C@@H]3CCCCN3C(=O)c3cc(F)ccc3OC(F)(F)F)cc2nc1N1C[C@@H](C#N)[C@@H](O)C1` [Compound 122] was tested, and the inhibition at 0.5 µM was 100%. `Cc1cn2nc([C@@H]3CCCCN3C(=O)c3cccc4cn[nH]c34)cc2nc1N1C[C@@H](C#N)[C@@H](O)C1` [Compound 123] was tested, and the inhibition at 0.5 µM was 98%. `Cc1cn2nc([C@@H]3CCCCN3C(=O)c3c(F)ccc(C)c3F)cc2nc1N1C[C@@H](C#N)[C@@H](O)C1` [Compound 124] showed an inhibition at 0.5 µM of 100%. Compound `COc1ccc(C(=O)N2CCCC[C@H]2c2cc3nc(N4C[C@@H](C#N)[C@@H](O)C4)c(C)cn3n2)c(F)c1` [Compound 126] has an inhibition at 0.5 µM of 82%. For `Cc1noc(-c2ccccc2C(=O)N2CCCC[C@H]2c2cc3nc(N4C[C@@H](C#N)[C@@H](O)C4)c(C)cn3n2)n1` [Compound 129], the inhibition at 0.5 µM was 87%. Compound `Cc1cn2nc([C@@H]3CCCCN3C(=O)c3cc(F)cc4c3OCOC4)cc2nc1N1C[C@@H](C#N)[C@@H](O)C1` [Compound 130] has an inhibition at 0.5 µM of 100%. `Cc1ccc(C(=O)N2CCCC[C@H]2c2cc3nc(N4C[C@@H](C#N)[C@@H](O)C4)c(C)cn3n2)c(Cl)c1` [Compound 131] was tested, and the inhibition at 0.5 µM was 96%. Work on `COc1cc2c(cc1C(=O)N1CCCC[C@H]1c1cc3nc(N4C[C@@H](C#N)[C@@H](O)C4)c(C)cn3n1)CCC2` [Compound 132] yielded an inhibition at 0.5 µM of 97%. `Cc1cn2nc([C@@H]3CCCCN3C(=O)c3ccc4cccc(F)c4n3)cc2nc1N1C[C@@H](C#N)[C@@H](O)C1` [Compound 133] was tested, and the inhibition at 0.5 µM was 56%. Compound `Cc1cn2nc([C@@H]3CCCCN3C(=O)c3[nH]c4c(C)ccc(C)c4c3C)cc2nc1N1C[C@@H](C#N)[C@@H](O)C1` [Compound 134] has an inhibition at 0.5 µM of 35%. Compound `Cc1cn2nc([C@@H]3CCCCN3C(=O)c3cccc4ccnn34)cc2nc1N1C[C@@H](C#N)[C@@H](O)C1` [Compound 135] has an inhibition at 0.5 µM of 100%. In the case of `Cc1cn2nc([C@@H]3CCCCN3C(=O)c3c(Cl)nc4ccccn34)cc2nc1N1C[C@@H](C#N)[C@@H](O)C1` [Compound 136], the inhibition at 0.5 µM is reported as 83%. `Cc1ccc(S(C)(=O)=O)cc1C(=O)N1CCCC[C@H]1c1cc2nc(N3C[C@@H](C#N)[C@@H](O)C3)c(C)cn2n1` [Compound 138] was tested, and the inhibition at 0.5 µM was 65%. Work on `Cc1cn2nc([C@@H]3CCCCN3C(=O)c3cccc4c3CCCN4)cc2nc1N1C[C@@H](C#N)[C@@H](O)C1` [Compound 139] yielded an inhibition at 0.5 µM of 100%. For `Cc1cn2nc([C@@H]3CCCCN3C(=O)c3cccc4c3OCO4)cc2nc1N1C[C@@H](C#N)[C@@H](O)C1` [Compound 140], the inhibition at 0.5 µM was 100%. `Cc1cc(C(=O)N2CCCC[C@H]2c2cc3nc(N4C[C@@H](C#N)[C@@H](O)C4)c(C)cn3n2)c2[nH]ncc2c1` [Compound 143] was tested, and the inhibition at 0.5 µM was 100%. With `Cc1cn2nc([C@@H]3CCCCN3C(=O)c3ccccc3OC3CCCC3)cc2nc1N1C[C@@H](C#N)[C@@H](O)C1` [Compound 144] the inhibition at 0.5 µM was 80%. `CCS(=O)(=O)c1ccc(F)c(C(=O)N2CCCC[C@H]2c2cc3nc(N4C[C@@H](C#N)[C@@H](O)C4)c(C)cn3n2)c1` [Compound 145] was tested, and the inhibition at 0.5 µM was 60%. Work on `Cc1cn2nc([C@@H]3CCCCN3C(=O)c3ccccc3Cl)cc2nc1N1C[C@@H](C#N)[C@@H](O)C1` [Compound 146] yielded an inhibition at 0.5 µM of 100%. With `Cc1cn2nc([C@@H]3CCCCN3C(=O)c3cccc(C(F)(F)F)n3)cc2nc1N1C[C@@H](C#N)[C@@H](O)C1` [Compound 148] the inhibition at 0.5 µM was 77%. With `Cc1cn2nc([C@@H]3CCCCN3C(=O)c3ccc(F)c(F)c3C)cc2nc1N1C[C@@H](C#N)[C@@H](O)C1` [Compound 149] the inhibition at 0.5 µM was 100%. With `Cc1cn2nc([C@@H]3CCCCN3C(=O)c3ccc(F)cc3F)cc2nc1N1C[C@@H](C#N)[C@@H](O)C1` [Compound 150] the inhibition at 0.5 µM was 99%. `Cc1cn2nc([C@@H]3CCCCN3C(=O)c3cccc4cc[nH]c34)cc2nc1N1C[C@@H](C#N)[C@@H](O)C1` [Compound 151] showed an inhibition at 0.5 µM of 100%. For `Cc1cn2nc([C@@H]3CCCCN3C(=O)c3nc(Cl)ccc3Cl)cc2nc1N1C[C@@H](C#N)[C@@H](O)C1` [Compound 152], the inhibition at 0.5 µM was 100%. In the case of `Cc1cc(F)c(F)cc1C(=O)N1CCCC[C@H]1c1cc2nc(N3C[C@@H](C#N)[C@@H](O)C3)c(C)cn2n1` [Compound 153], the inhibition at 0.5 µM is reported as 100%. With `Cc1cn2nc([C@@H]3CCCCN3C(=O)c3ncccc3Br)cc2nc1N1C[C@@H](C#N)[C@@H](O)C1` [Compound 154] the inhibition at 0.5 µM was 90%. In the case of `Cc1cc(F)ccc1C(=O)N1CCCC[C@H]1c1cc2nc(N3C[C@@H](C#N)[C@@H](O)C3)c(C)cn2n1` [Compound 155], the inhibition at 0.5 µM is reported as 100%. `Cc1ccc(F)cc1C(=O)N1CCCC[C@H]1c1cc2nc(N3C[C@@H](C#N)[C@@H](O)C3)c(C)cn2n1` [Compound 156] was tested, and the inhibition at 0.5 µM was 100%. `Cc1cn2nc([C@@H]3CCCCN3C(=O)c3c(F)cccc3F)cc2nc1N1C[C@@H](C#N)[C@@H](O)C1` [Compound 157] was tested, and the inhibition at 0.5 µM was 98%. For `Cc1cccnc1C(=O)N1CCCC[C@H]1c1cc2nc(N3C[C@@H](C#N)[C@@H](O)C3)c(C)cn2n1` [Compound 159], the inhibition at 0.5 µM was 91%. In the case of `Cc1cn2nc([C@@H]3CCCCN3C(=O)c3cccc(F)n3)cc2nc1N1C[C@@H](C#N)[C@@H](O)C1` [Compound 160], the inhibition at 0.5 µM is reported as 71%. Work on `Cc1cn2nc([C@@H]3CCCCN3C(=O)c3cc(I)ccn3)cc2nc1N1C[C@@H](C#N)[C@@H](O)C1` [Compound 161] yielded an inhibition at 0.5 µM of 61%. With `Cc1cn2nc([C@@H]3CCCCN3C(=O)c3cccc4c3CCCC4)cc2nc1N1C[C@@H](C#N)[C@@H](O)C1` [Compound 162] the inhibition at 0.5 µM was 100%. `Cc1cn2nc([C@@H]3CCCCN3C(=O)c3nccc4ccccc34)cc2nc1N1C[C@@H](C#N)[C@@H](O)C1` [Compound 163] gave an inhibition at 0.5 µM of 100%. `COc1cccc(C(=O)N2CCCC[C@H]2c2cc3nc(N4C[C@@H](C#N)[C@@H](O)C4)c(C)cn3n2)c1C` [Compound 165] was tested, and the inhibition at 0.5 µM was 92%. `COc1cc(C)c(C(=O)N2CCCC[C@H]2c2cc3nc(N4C[C@@H](C#N)[C@@H](O)C4)c(C)cn3n2)cc1C` [Compound 167] was tested, and the inhibition at 0.5 µM was 100%. For `Cc1cn2nc([C@@H]3CCCCN3C(=O)c3cc(C(F)(F)F)ccn3)cc2nc1N1C[C@@H](C#N)[C@@H](O)C1` [Compound 168], the inhibition at 0.5 µM was 44%. For `Cc1cn2nc([C@@H]3CCCCN3C(=O)c3cccc(C)c3C)cc2nc1N1C[C@@H](C#N)[C@@H](O)C1` [Compound 169], the inhibition at 0.5 µM was 100%. Work on `Cc1ccc(Cl)c(C(=O)N2CCCC[C@H]2c2cc3nc(N4C[C@@H](C#N)[C@@H](O)C4)c(C)cn3n2)c1` [Compound 170] yielded an inhibition at 0.5 µM of 100%. `Cc1ccc(Br)c(C(=O)N2CCCC[C@H]2c2cc3nc(N4C[C@@H](C#N)[C@@H](O)C4)c(C)cn3n2)c1` [Compound 171] was tested, and the inhibition at 0.5 µM was 100%. With `Cc1cn2nc([C@@H]3CCCCN3C(=O)c3cccc(F)c3C)cc2nc1N1C[C@@H](C#N)[C@@H](O)C1` [Compound 172] the inhibition at 0.5 µM was 100%. Work on `COc1cc(C)ccc1C(=O)N1CCCC[C@H]1c1cc2nc(N3C[C@@H](C#N)[C@@H](O)C3)c(C)cn2n1` [Compound 173] yielded an inhibition at 0.5 µM of 98%. `COc1cc2ccccc2cc1C(=O)N1CCCC[C@H]1c1cc2nc(N3C[C@@H](C#N)[C@@H](O)C3)c(C)cn2n1` [Compound 174] gave an inhibition at 0.5 µM of 58%. With `Cc1cn2nc([C@@H]3CCCCN3C(=O)c3cccc4n[nH]cc34)cc2nc1N1C[C@@H](C#N)[C@@H](O)C1` [Compound 175] the inhibition at 0.5 µM was 91%. `Cc1cccc(C(=O)N2CCCC[C@H]2c2cc3nc(N4C[C@@H](C#N)[C@@H](O)C4)c(C)cn3n2)n1` [Compound 176] gave an inhibition at 0.5 µM of 97%. `Cc1cn2nc([C@@H]3CCCCN3C(=O)c3ccc(Cl)c(Cl)c3)cc2nc1N1C[C@@H](C#N)[C@@H](O)C1` [Compound 177] showed an inhibition at 0.5 µM of 99%.
